Earlier results in patent US20190030061A1, “COBALAMIN COMPOSITIONS AND USE THEREOF FOR IMPROVING COGNITIVE FUNCTION” (NOVA SOUTHEASTERN UNIVERSITY, priority 2016, published 2019).

Test system: neuronal cells

Substance | GSH levels | cysteine uptake
Amyloid Beta | decrease | decrease
IGF1: insulin-like growth factor 1 | increased | stimulates
